Source: patent US8053585B2, “Protecting group for carboxylic acids that can be photolyzed by visible light” (Cornell Research Foundation, Inc., priority 2006, dated 2011)

Tested on: GluR6 glutamate receptor
Test: Whole-cell current recording with cell-flow method, HEK 293 cells expressing GluR6
Format: cell-based
Conditions: 1 mM DECM, −60 mV, pH 7.4, 22° C.
Excerpt: In whole-cell current recording experiments with DECM-caged glutamate, HEK 293 cells stably transfected with cDNA encoding the GluR6 were used. In whole-cell current recording experiments with DECM-caged glycine, HEK 293 cells were transiently transfected with the cDNA of the α1-subunit of the human glycine receptor by using the Polyfect™ transfection reagent (Qiagen GmbH, D-40724, Hilden, Germany). The cDNA of the α1-subunit was kindly provided by Professor H. Betz (Max-Plank-Institute for brain Research, Frankfurt, Germany). The cells were co-transfected with cDNA encoding the green fluorescent protein (pGreen Lantern plasmid, Life Technologies, Gaitherberg, Md.) to detect transfected cells (Chalfie et al., “Green Fluorescent Protein as a Marker for Gene Expression,” Science 263:802-805 (1994), which is hereby incorporated by reference in its entirety).
The cells were used for electrophysiological experiments between 24 and 72 h after each passage. Whole-cell currents evoked by glutamate or glycine (100 μM) were recorded using the whole-cell configuration (Hamill et al., “Improved Patch-Clamp Techniques for High-Resolution Current Recording From Cells and Cell-Free Membrane Patches,” Pfluegers Arch 391:85-100 (1981), which is hereby incorporated by reference in its entirety) at room temperature, −60 mV, and pH 7.4. The experiments using DECM-caged glutamate were carried out in the absence or presence of 2 mM DECM-caged glutamate (FIG. 5A) or 1 mM 7-N,N-diethylamino-4-hydroxymethylcoumarin (2) (FIG. 5B). Alternatively, the experiments using DECM-caged glycine were carried out in the absence or presence of 1 mM DECM-caged-glycine (FIG. 10). The solution in the recording pipet contained 120 mM CsCl, 10 mM EGTA, and 10 mM HEPES, adjusted to pH 7.4. The HEK cell bath solution contained 150 mM NaCl, 1 mM CaCl2, 10 mM HEPES, pH 7.4. The resistance of the recording electrode filled with buffer solution was typically 3-5 MΩ and the series resistance was 5-6 MΩ. The cells were held at a constant transmembrane voltage of −60 mV and room temperature (22° C.). […]

CCN(CC)c1ccc2c(CO)cc(=O)oc2c1 [DECM, 7-N,N-Diethylamino-4-hydroxymethylcoumarin]
whole-cell current evoked by 100 μM glutamate, presence vs absence of compound: do not inhibit
